Assay [1] addresses T1, SPT-ORMDL3 complex (Homo sapiens, UniProt O15269+O15270+Q8N138).
T1 construct: full-length subunits (ORMDL3-FL) co-expressed in HEK293F; N-terminal Flag tag on a subunit; purified in GDN; dimer of heterotetrameric protomers; with Serine palmitoyltransferase small subunit A
Kind of assay: cryo-EM structure; LC-MS/MS of co-purified ceramides. The class given is binding. Particulars: endogenous co-purified lipid; C24-ceramide fitted to a ceramide-like density, chain length not uniquely defined.

The target in assay [2] is T2, SPT-ORMDL3 complex (Homo sapiens, UniProt O15269+O15270+Q8N138, O15269:DEL40-41).
T2 construct: full-length subunits (ORMDL3-FL) co-expressed in HEK293F; N-terminal Flag tag on a subunit; purified in GDN; dimer of heterotetrameric protomers; with Serine palmitoyltransferase small subunit A
Kind of assay: DTNB CoA-release assay. The class given is biochemical. Particulars: 10 mM L-serine, 100 μM palmitoyl-CoA, 25 μM PLP, pH 7.5, 37 °C.

In assay [3] the target is T3, SPT-ORMDL1 complex (Homo sapiens, UniProt O15269+O15270+Q9P0S3).
T3 construct: full-length subunits co-expressed in HEK293F; N-terminal Flag tag on a subunit; purified in GDN; with Serine palmitoyltransferase small subunit A
Nature of the assay: DTNB CoA-release assay. The class given is biochemical.

In assay [4] the target is T1, SPT-ORMDL3 complex. Kind of assay: DTNB CoA-release assay; cryo-EM structure. It counts as biochemical.
For assay [5], the target named is T4, SPT-ORMDL2 complex (Homo sapiens, UniProt O15269+O15270+Q53FV1).
T4 construct: full-length subunits co-expressed in HEK293F; N-terminal Flag tag on a subunit; purified in GDN; with Serine palmitoyltransferase small subunit A
Kind of assay: DTNB CoA-release assay. It counts as biochemical.

In assay [6] the target is T5, SPT-ORMDL3 complex (Homo sapiens, UniProt O15269+O15270+Q8N138, O15269:DEL39-39).
T5 construct: full-length subunits (ORMDL3-FL) co-expressed in HEK293F; N-terminal Flag tag on a subunit; purified in GDN; dimer of heterotetrameric protomers; with Serine palmitoyltransferase small subunit A
Nature of the assay: DTNB CoA-release assay. It counts as biochemical. Particulars: 10 mM L-serine, 100 μM palmitoyl-CoA, 25 μM PLP, pH 7.5, 37 °C.

Assay [7] has as its target T6, SPT-ORMDL3 complex (Homo sapiens, UniProt O15269+O15270+Q8N138, Q8N138:F63P).
T6 construct: full-length subunits (ORMDL3-FL) co-expressed in HEK293F; N-terminal Flag tag on a subunit; purified in GDN; dimer of heterotetrameric protomers; with Serine palmitoyltransferase small subunit A
Nature of the assay: DTNB CoA-release assay. It counts as biochemical. Particulars: 10 mM L-serine, 100 μM palmitoyl-CoA, 25 μM PLP, pH 7.5, 37 °C.

For assay [8], the target named is T7, SPT-ORMDL3 complex (Homo sapiens, UniProt O15269+O15270+Q8N138, Q8N138:N13A).
T7 construct: full-length subunits (ORMDL3-FL) co-expressed in HEK293F; N-terminal Flag tag on a subunit; purified in GDN; dimer of heterotetrameric protomers; with Serine palmitoyltransferase small subunit A
Nature of the assay: DTNB CoA-release assay. Particulars: 10 mM L-serine, 100 μM palmitoyl-CoA, 25 μM PLP, pH 7.5, 37 °C. It counts as biochemical.

The target of assay [9] is T8, SPT-ORMDL3 complex (Homo sapiens, UniProt O15269+O15270+Q8N138, Q8N138:H85A).
T8 construct: full-length subunits (ORMDL3-FL) co-expressed in HEK293F; N-terminal Flag tag on a subunit; purified in GDN; dimer of heterotetrameric protomers; with Serine palmitoyltransferase small subunit A
Nature of the assay: DTNB CoA-release assay. It counts as biochemical. An excerpt:
(§1) DTNB CoA-release assay on SPT-ORMDL3 complex | severely impaired for the former two variants, but largely sustained for the latter two variants

Assay [10] has as its target T9, SPT-ORMDL3 complex (Homo sapiens, UniProt O15269+O15270+Q8N138, O15270:Y122A).
T9 construct: full-length subunits (ORMDL3-FL) co-expressed in HEK293F; N-terminal Flag tag on a subunit; purified in GDN; dimer of heterotetrameric protomers; with Serine palmitoyltransferase small subunit A
Kind of assay: DTNB CoA-release assay. It counts as biochemical.
Description: as §1

Assay [11] addresses T10, ORMDL3 (full-length, wild type) (human, UniProt Q8N138 1-153).
T10 construct: ORMDL3, human, codon-optimized full-length cDNA in pCAG (new ORMDL3-FL plasmid without the 14 extra nucleotides upstream of the ORF); cDNAs were cloned 'with an N-terminal Flag tag or without a tag'; also called ORMDL3-FL; WT ORMDL3; source: HEK293F, transiently co-transfected with the SPT subunits, purified as a complex (anti-Flag resin, SEC, GDN)
T10 sequence (looked up): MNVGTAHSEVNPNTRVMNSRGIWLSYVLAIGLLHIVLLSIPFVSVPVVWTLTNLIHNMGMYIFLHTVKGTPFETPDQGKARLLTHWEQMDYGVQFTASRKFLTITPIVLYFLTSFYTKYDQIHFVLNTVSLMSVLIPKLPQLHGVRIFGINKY
Kind of assay: cryo-EM structure; single-particle cryo-EM of co-expressed and co-purified SPT-ORMDL3 complexes at ~18 mg/ml in 25 mM HEPES pH 7.5, 150 mM NaCl, 0.01% GDN; apo, or WT preincubated with 1 mM C6-ceramide on ice for 1 hr. As to conditions: both partners purified.

As a reminder, the IC50 is the midpoint of a concentration-inhibition curve. Lower therefore signals greater potency in that assay.

T1 sequence (O15270 whole entry, one chain of several): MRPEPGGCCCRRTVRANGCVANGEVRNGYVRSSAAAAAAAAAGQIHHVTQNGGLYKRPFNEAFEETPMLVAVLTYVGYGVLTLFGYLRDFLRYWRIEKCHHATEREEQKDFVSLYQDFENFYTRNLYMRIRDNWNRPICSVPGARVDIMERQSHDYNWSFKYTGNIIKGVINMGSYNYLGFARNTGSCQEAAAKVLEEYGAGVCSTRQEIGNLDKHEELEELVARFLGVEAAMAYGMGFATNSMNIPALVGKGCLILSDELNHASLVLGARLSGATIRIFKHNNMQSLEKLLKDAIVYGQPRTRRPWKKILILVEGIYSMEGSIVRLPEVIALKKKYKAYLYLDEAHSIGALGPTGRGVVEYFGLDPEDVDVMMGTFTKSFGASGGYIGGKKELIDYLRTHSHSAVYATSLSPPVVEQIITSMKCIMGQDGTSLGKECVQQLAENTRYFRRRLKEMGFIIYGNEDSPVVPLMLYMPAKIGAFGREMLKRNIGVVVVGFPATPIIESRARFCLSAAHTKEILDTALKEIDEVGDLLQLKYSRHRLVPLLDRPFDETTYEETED
T1 sequence (O15269 whole entry, one chain of several): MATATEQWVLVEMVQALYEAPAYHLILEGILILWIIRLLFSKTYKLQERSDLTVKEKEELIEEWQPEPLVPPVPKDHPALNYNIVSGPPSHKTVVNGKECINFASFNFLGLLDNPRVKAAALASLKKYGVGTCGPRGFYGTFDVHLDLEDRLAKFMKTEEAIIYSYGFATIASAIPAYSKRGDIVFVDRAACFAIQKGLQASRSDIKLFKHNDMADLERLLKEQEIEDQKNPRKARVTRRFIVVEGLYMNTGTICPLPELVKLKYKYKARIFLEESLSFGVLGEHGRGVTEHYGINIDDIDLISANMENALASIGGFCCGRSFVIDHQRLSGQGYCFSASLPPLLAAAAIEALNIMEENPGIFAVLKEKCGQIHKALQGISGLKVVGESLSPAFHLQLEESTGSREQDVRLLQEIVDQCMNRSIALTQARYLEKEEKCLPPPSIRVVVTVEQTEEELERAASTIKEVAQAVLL
T6 sequence (Q8N138 whole entry F63P, one chain of several): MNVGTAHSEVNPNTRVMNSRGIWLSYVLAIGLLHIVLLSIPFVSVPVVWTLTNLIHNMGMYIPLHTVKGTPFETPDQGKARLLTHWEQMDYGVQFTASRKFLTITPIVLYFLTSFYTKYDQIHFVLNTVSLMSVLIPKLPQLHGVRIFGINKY
T6 sequence (O15270 whole entry, one chain of several): as the sequence (O15270 whole entry, one chain of several) above
T6 sequence (O15269 whole entry, one chain of several): as the sequence (O15269 whole entry, one chain of several) above
T3 sequence (Q9P0S3 whole entry, one chain of several): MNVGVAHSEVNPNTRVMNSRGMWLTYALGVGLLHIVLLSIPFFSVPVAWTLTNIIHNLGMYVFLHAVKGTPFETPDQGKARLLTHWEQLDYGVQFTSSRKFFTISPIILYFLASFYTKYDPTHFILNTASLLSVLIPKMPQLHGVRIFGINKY
T3 sequence (O15270 whole entry, one chain of several): as the sequence (O15270 whole entry, one chain of several) above
T3 sequence (O15269 whole entry, one chain of several): as the sequence (O15269 whole entry, one chain of several) above
T4 sequence (Q53FV1 whole entry, one chain of several): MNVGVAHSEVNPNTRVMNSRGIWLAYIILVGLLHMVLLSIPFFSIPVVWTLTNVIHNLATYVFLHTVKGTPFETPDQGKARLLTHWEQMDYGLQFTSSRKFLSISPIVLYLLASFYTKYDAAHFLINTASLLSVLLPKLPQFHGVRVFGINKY
T4 sequence (O15270 whole entry, one chain of several): as the sequence (O15270 whole entry, one chain of several) above
T4 sequence (O15269 whole entry, one chain of several): as the sequence (O15269 whole entry, one chain of several) above
T2 sequence (O15270 whole entry, stated change not applied, one chain of several): as the sequence (O15270 whole entry, one chain of several) above
T2 sequence (O15269 with tags, fused parts or gaps DEL40-41, one chain of several): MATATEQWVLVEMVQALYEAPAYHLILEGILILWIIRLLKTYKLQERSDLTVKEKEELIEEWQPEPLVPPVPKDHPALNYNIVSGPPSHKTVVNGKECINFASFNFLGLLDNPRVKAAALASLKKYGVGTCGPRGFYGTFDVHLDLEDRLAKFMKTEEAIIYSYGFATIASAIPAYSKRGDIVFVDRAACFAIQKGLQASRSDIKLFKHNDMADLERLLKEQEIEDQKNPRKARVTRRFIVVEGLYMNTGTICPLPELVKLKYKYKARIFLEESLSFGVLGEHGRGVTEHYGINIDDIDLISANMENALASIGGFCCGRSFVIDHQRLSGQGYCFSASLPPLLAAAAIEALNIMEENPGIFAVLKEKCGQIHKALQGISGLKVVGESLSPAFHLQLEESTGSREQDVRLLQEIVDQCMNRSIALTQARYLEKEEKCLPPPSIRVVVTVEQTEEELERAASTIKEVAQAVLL
T9 sequence (O15270 whole entry Y122A, one chain of several): as the sequence (O15270 whole entry, one chain of several) above, with Y122A counted along it
T9 sequence (O15269 whole entry, one chain of several): as the sequence (O15269 whole entry, one chain of several) above
T5 sequence (O15270 whole entry, stated change not applied, one chain of several): as the sequence (O15270 whole entry, one chain of several) above
T5 sequence (O15269 with tags, fused parts or gaps DEL39-39, one chain of several): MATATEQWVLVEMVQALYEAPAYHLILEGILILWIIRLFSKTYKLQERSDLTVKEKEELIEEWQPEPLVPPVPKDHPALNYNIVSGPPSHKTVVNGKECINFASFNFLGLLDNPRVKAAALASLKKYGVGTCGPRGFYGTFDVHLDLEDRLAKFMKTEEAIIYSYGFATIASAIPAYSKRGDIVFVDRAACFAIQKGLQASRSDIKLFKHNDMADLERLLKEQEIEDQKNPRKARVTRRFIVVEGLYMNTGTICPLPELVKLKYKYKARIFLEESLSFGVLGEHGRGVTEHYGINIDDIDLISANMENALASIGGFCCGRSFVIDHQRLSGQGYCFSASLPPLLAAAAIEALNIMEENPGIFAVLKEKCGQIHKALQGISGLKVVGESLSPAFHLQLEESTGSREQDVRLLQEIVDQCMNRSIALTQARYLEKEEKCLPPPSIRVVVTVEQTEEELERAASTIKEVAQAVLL
T7 sequence (Q8N138 whole entry N13A, one chain of several): as the sequence (Q8N138 whole entry F63P, one chain of several) above, with N13A, P63F counted along it
T7 sequence (O15270 whole entry, one chain of several): as the sequence (O15270 whole entry, one chain of several) above
T7 sequence (O15269 whole entry, one chain of several): as the sequence (O15269 whole entry, one chain of several) above
T8 sequence (Q8N138 whole entry H85A, one chain of several): as the sequence (Q8N138 whole entry F63P, one chain of several) above, with P63F, H85A counted along it
T8 sequence (O15270 whole entry, one chain of several): as the sequence (O15270 whole entry, one chain of several) above
T8 sequence (O15269 whole entry, one chain of several): as the sequence (O15269 whole entry, one chain of several) above

With `CCCCCCCCCCCCC/C=C/[C@@H](O)[C@H](CO)NC(=O)CCCCCCCCCCCCCCCCCCCCCCC` [C24-ceramide], the “cryo-EM structure; LC-MS/MS of co-purified ceramides” value in [1] is reported as “ceramide-like density in the apo SPT-ORMDL3 structure, which could be better fitted with C24-ceramide”.

As for `CCCCCCCCCCCCC/C=C/[C@@H](O)[C@H](CO)NC(=O)CCCCC` [C6-ceramide], the inhibition curve result in assay [2] is recorded as “inhibition effect of C6-ceramide on all these SPTLC1 ALS variants was attenuated”; in assay [6], “inhibition effect of C6-ceramide on all these SPTLC1 ALS variants was attenuated”; in [7], “responses to C6-ceramide have been severely impaired for the former two variants”; in [8], “responses to C6-ceramide have been severely impaired for the former two variants”. The IC50 in assay [3] is 4.07 µM; in assay [4] it was 2.2 µM; in assay [5], 0.98 µM; in [9] it was 0.964 µM; in [10], 6.98 µM.

B1: SPTssa (natural protein, human, UniProt Q969W0 1-71, looked up)
chain: MAGMALARAWKQMSWFYYQYLLVTALYMLEPWERTVFNSMLVSIVGMALYTGYVFMPQHIMAILHYFEIVQ
notes: serine palmitoyltransferase small subunit A (SPTssa), human, codon-optimized full-length cDNA; also called small SPT subunit; source: HEK293F, transiently co-transfected with the other subunits, purified as a complex (anti-Flag resin, SEC, GDN)
As to B1, the binding result in assay [11] is given as “binds”.

The values are drawn from publication PMC10261145, “Ceramide sensing by human SPT-ORMDL complex for establishing sphingolipid homeostasis” (Nature Communications, 2023).
